The source made the active and inactive calls. No cut-off for these calls is given here.
Columns and labels:
[1] = test system: Baculoviral IAP repeat-containing protein 2/Ataxin-7 (Homo sapiens), Q13490+O15265 [UNDEFINED MUTATION]; assay: Protac activity at C-IAP1/ataxin-7 mutant in fibroblasts derived from SCA7 patient assessed as reduction in mutant ataxin-7 expression at 10 uM after 24 hrs by Western blot analysis
[2] = test system: Baculoviral IAP repeat-containing protein 2/Atrophin-1 (Homo sapiens), Q13490+P54259 [UNDEFINED MUTATION]; assay: Protac activity at C-IAP1/atrophin-1 mutant in fibroblasts derived from DRPLA patient assessed as reduction in mutant atrophin-1 expression at 10 uM after 24 hrs by Western blot analysis
[3] = test system: Baculoviral IAP repeat-containing protein 2/Ataxin-3 (Homo sapiens), Q13490+P54252 [UNDEFINED MUTATION]; assay: Protac activity at C-IAP1/Ataxin-3 mutant in fibroblasts derived from SCA3 patient assessed as reduction in mutant ataxin-3 expression after 24 to 48 hrs by Western blot analysis
[4] = test system: Baculoviral IAP repeat-containing protein 2/Ataxin-7 (Homo sapiens), Q13490+O15265 [UNDEFINED MUTATION]; assay: Protac activity at C-IAP1/ataxin-7 mutant in fibroblasts derived from SCA7 patient assessed as reduction in mutant ataxin-7 expression after 24 to 48 hrs by Western blot analysis
[5] = test system: Baculoviral IAP repeat-containing protein 2/Atrophin-1 (Homo sapiens), Q13490+P54259 [UNDEFINED MUTATION]; assay: Protac activity at C-IAP1/atrophin-1 mutant in fibroblasts derived from DRPLA patient assessed as reduction in mutant atrophin-1 expression after 24 to 48 hrs by Western blot analysis
[6] = test system: Baculoviral IAP repeat-containing protein 2/Ataxin-3 (Homo sapiens), Q13490+P54252 [UNDEFINED MUTATION]; assay: Protac activity at C-IAP1/ataxin-3 mutant in fibroblasts derived from SCA3 patient assessed as reduction in mutant ataxin-3 expression at 10 uM by Western blot analysis; conditions: TDE = time-dependent effect
[7] = test system: Baculoviral IAP repeat-containing protein 2/Ataxin-7 (Homo sapiens), Q13490+O15265 [UNDEFINED MUTATION]; assay: Protac activity at C-IAP1/ataxin-7 mutant in fibroblasts derived from SCA7 patient assessed as reduction in mutant ataxin-7 expression at 10 uM by Western blot analysis; conditions: TDE = time-dependent effect
[8] = test system: Baculoviral IAP repeat-containing protein 2/Atrophin-1 (Homo sapiens), Q13490+P54259 [UNDEFINED MUTATION]; assay: Protac activity at C-IAP1/atrophin-1 mutant in fibroblasts derived from DRPLA patient assessed as reduction in mutant atrophin-1 expression at 10 uM by Western blot analysis; conditions: TDE = time-dependent effect
[9] = test system: Baculoviral IAP repeat-containing protein 2/Ataxin-7 (Homo sapiens), Q13490+O15265 [UNDEFINED MUTATION]; assay: Protac activity at C-IAP1/ataxin-7 mutant in fibroblasts derived from SCA7 patient assessed as reduction in mutant ataxin-7 expression at 10 uM after 24 hrs in presence of proteasome inhibitor MG132 by Western blot analysis
[10] = test system: Baculoviral IAP repeat-containing protein 2/Atrophin-1 (Homo sapiens), Q13490+P54259 [UNDEFINED MUTATION]; assay: Protac activity at C-IAP1/atrophin-1 mutant in fibroblasts derived from DRPLA patient assessed as reduction in mutant atrophin-1 expression at 10 uM after 24 hrs in presence of proteasome inhibitor MG132 by Western blot analysis
[11] = test system: Baculoviral IAP repeat-containing protein 2/Ataxin-7 (Homo sapiens), Q13490+O15265 [UNDEFINED MUTATION]; assay: Protac activity at C-IAP1/ataxin-7 mutant in fibroblasts derived from SCA7 patient assessed as reduction in mutant ataxin-7 expression at 10 uM after 24 hrs in presence of proteasome inhibitor epoxomicin by Western blot analysis
[12] = test system: Baculoviral IAP repeat-containing protein 2/Atrophin-1 (Homo sapiens), Q13490+P54259 [UNDEFINED MUTATION]; assay: Protac activity at C-IAP1/atrophin-1 mutant in fibroblasts derived from DRPLA patient assessed as reduction in mutant atrophin-1 expression at 10 uM after 24 hrs in presence of proteasome inhibitor epoxomicin by Western blot analysis

Baculoviral IAP repeat-containing protein 2/Ataxin-3 (Homo sapiens), Q13490+P54252 [UNDEFINED MUTATION], sequence (P54252 whole entry, looked up, change not shown): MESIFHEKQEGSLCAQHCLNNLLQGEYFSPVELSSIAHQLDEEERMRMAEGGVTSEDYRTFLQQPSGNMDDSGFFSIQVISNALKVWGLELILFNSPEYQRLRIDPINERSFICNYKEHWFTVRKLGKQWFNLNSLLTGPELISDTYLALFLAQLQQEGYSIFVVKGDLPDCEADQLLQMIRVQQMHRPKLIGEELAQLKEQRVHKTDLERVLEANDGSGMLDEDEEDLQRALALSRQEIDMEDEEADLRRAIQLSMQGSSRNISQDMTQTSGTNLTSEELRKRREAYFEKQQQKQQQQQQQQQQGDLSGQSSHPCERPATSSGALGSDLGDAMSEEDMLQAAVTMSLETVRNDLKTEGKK
Baculoviral IAP repeat-containing protein 2/Ataxin-3 (Homo sapiens), Q13490+P54252 [UNDEFINED MUTATION], sequence (Q13490 whole entry, looked up, change not shown): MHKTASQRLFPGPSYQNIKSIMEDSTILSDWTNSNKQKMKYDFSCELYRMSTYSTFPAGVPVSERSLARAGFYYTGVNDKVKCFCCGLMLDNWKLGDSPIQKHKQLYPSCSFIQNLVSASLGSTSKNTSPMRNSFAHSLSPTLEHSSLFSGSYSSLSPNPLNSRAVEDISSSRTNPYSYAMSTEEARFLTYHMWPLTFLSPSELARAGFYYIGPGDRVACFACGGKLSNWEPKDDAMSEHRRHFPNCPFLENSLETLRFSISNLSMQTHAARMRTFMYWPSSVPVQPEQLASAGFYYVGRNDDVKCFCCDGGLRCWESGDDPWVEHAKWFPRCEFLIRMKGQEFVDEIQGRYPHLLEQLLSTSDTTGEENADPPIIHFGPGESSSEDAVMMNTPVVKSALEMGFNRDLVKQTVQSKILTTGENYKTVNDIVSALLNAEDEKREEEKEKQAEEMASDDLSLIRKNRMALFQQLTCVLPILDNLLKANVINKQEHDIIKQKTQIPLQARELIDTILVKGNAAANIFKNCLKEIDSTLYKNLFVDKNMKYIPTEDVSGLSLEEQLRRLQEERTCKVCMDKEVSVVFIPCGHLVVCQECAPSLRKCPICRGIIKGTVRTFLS
Baculoviral IAP repeat-containing protein 2/Atrophin-1 (Homo sapiens), Q13490+P54259 [UNDEFINED MUTATION], sequence (P54259 whole entry, looked up, change not shown): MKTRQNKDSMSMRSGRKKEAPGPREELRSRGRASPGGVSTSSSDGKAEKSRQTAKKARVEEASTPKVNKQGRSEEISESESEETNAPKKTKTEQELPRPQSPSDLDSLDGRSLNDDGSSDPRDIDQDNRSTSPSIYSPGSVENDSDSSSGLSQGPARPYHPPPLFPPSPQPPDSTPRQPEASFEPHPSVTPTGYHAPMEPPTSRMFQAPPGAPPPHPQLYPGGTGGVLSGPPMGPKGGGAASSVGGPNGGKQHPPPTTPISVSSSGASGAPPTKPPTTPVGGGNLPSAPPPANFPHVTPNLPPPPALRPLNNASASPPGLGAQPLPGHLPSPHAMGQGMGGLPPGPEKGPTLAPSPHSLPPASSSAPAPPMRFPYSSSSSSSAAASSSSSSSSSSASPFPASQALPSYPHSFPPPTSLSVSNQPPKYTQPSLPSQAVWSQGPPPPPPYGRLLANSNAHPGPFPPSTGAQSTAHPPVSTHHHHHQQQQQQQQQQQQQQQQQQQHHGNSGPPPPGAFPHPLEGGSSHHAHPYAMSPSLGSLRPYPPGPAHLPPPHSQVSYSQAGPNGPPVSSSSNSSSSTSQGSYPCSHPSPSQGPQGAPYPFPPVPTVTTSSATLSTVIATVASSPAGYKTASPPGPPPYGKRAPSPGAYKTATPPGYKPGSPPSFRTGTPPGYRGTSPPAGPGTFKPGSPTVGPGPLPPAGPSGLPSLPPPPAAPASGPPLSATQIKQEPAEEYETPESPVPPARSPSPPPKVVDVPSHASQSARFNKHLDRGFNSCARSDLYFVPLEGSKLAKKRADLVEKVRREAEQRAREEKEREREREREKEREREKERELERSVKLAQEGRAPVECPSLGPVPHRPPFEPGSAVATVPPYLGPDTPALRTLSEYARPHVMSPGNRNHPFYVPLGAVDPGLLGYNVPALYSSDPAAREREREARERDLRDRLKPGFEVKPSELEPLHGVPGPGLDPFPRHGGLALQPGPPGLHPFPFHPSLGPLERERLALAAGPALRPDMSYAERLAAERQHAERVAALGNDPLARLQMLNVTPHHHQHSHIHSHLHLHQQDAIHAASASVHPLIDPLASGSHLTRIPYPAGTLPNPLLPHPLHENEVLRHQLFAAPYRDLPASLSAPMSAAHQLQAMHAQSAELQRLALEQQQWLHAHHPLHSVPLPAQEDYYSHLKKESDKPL
Baculoviral IAP repeat-containing protein 2/Atrophin-1 (Homo sapiens), Q13490+P54259 [UNDEFINED MUTATION], sequence (Q13490 whole entry, looked up, change not shown): as the sequence (Q13490 whole entry, looked up, change not shown) above
Baculoviral IAP repeat-containing protein 2/Ataxin-7 (Homo sapiens), Q13490+O15265 [UNDEFINED MUTATION], sequence (O15265 whole entry, looked up, change not shown): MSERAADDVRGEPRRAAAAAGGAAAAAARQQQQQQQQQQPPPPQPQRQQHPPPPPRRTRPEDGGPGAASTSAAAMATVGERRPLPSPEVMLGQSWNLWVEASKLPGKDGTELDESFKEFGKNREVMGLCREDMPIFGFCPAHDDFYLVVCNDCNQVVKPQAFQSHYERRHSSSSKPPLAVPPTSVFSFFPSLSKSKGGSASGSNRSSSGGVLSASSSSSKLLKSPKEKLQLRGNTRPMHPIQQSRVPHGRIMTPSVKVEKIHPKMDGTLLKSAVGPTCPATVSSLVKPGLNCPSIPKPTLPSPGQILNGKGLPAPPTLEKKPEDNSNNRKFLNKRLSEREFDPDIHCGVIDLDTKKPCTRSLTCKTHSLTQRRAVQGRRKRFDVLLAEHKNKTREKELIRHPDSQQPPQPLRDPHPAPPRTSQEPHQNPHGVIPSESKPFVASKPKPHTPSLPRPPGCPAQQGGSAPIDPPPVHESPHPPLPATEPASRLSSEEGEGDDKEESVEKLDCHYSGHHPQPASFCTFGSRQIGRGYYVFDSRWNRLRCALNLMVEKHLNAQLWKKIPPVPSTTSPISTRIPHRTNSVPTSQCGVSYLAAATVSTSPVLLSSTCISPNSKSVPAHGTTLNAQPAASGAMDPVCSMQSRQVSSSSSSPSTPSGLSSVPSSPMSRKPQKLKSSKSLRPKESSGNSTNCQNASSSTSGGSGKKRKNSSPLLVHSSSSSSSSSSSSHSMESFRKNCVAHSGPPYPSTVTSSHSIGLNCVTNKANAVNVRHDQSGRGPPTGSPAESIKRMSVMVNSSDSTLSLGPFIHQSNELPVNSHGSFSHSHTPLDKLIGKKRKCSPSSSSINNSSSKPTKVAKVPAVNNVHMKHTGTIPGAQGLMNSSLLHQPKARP
Baculoviral IAP repeat-containing protein 2/Ataxin-7 (Homo sapiens), Q13490+O15265 [UNDEFINED MUTATION], sequence (Q13490 whole entry, looked up, change not shown): as the sequence (Q13490 whole entry, looked up, change not shown) above

CNC(=O)[C@H](CC(C)C)NC(=O)[C@@H](O)[C@H](N)Cc1ccccc1
Activity [1]: inactive
Activity [2]: inactive

CNc1ccc(-c2nc3ccc(C)cc3s2)cc1
Activity [1]: inactive
Activity [2]: inactive

Cc1ccc2nc(-c3ccc(NCCOCCOCCNC(=O)[C@H](CC(C)C)NC(=O)[C@@H](O)[C@H](N)Cc4ccccc4)cc3)sc2c1
Activity [3]: Dose-dependent effect
Activity [4]: Dose-dependent effect
Activity [5]: Dose-dependent effect
Activity [6]: Tde
Activity [7]: Tde
Activity [8]: Tde
Activity [1]: Active
Activity [2]: Active
Activity [9]: inactive
Activity [10]: inactive
Activity [11]: inactive
Activity [12]: inactive

CC(C)C[C@H](NC(=O)[C@@H](O)[C@H](N)Cc1ccccc1)C(=O)NCCOCCOCCOc1ccc2nc(/N=N/c3ccc(N(C)C)cc3)sc2c1
Activity [3]: Dose-dependent effect
Activity [4]: Dose-dependent effect
Activity [5]: Dose-dependent effect
Activity [6]: Tde
Activity [7]: Tde
Activity [8]: Tde

— ChEMBL document CHEMBL4609994, “Application of protein knockdown strategy targeting β-sheet structure to multiple disease-associated polyglutamine proteins” (Bioorg Med Chem, 2020)
